Data as given in ChEMBL document CHEMBL5137037, “Phage Display Selected Cyclic Peptide Inhibitors of Kallikrein-Related Peptidases 5 and 7 and Their In Vivo Delivery to the Skin” (J Med Chem, 2022).
pKd, pKi: −log10 of the molar value. Values belong to the compound of their own block, whether it stands above or below them. Numbered stars: 1 amine (or outer) side, 2 acyl side, 3 side chain; on linkers, the order of the positions; unused ones are H or OH. Bridge positions count the residues as written; N and C are the ends. Square brackets hold non-standard residues; d marks the D form. Peptide text beside a SMILES is read from it. I, II: the chains in the order shown. * marks the point of attachment. X2 = CN(C)c1ccc2c(c1)[Si](C)(C)C1=CC(=[N+](C)C)C=CC1=C2c1cc(C(=O)*)ccc1C(=O)O; X1 = O=C(O)c1cc(C(=O)*)ccc1-c1c2ccc(=O)cc-2oc2cc(O)ccc12; X3 = O=C(C[C@H](CCO)C(=O)[*:2])[C@H](Cc1ccc(O)cc1)N[*:1]; Palmitoyl = CCCCCCCCCCCCCCCC(=O)*; CH2COCH2 = O=C(C[*:1])C[*:2]; hSer = N[C@@H](CCO)C(=O)O; AEEA = NCCOCCOCC(=O)O

Columns and labels:
[1] = Stability of the compound in human plasma assessed as half life […] by LC-MS analysis; format: ADME, cell-free
[2] = Plasma concentration in C57BL/6J mouse at 6.2 mg/kg, ip measured upto 24 hrs by RP-HPLC analysis; format: ADME, organism-based
[3] = Drug degradation in C57BL/6J mouse at 6.2 mg/kg, iv measured at 21 to 22 mins by RP-HPLC analysis; format: ADME, organism-based; conditions: in vivo, time 21-22 min
[4] = Half life in C57BL/6J mouse at 6.2 mg/kg, iv by RP-HPLC analysis; format: ADME, organism-based; conditions: in vivo
Kallikrein-5 = target: T1, Kallikrein-5 (Homo sapiens, UniProt Q9Y337); test: Inhibition of C-terminal poly-His-tagged human recombinant KLK5 (30 to 293 residues) transfected in CHO cells assessed as inhibition constant using Boc-VPR-AMC as fluorogenic substrate incubated for 30 mins by fluorescence plate reader assay; format: cell-based
T1 sequence (Q9Y337 whole entry): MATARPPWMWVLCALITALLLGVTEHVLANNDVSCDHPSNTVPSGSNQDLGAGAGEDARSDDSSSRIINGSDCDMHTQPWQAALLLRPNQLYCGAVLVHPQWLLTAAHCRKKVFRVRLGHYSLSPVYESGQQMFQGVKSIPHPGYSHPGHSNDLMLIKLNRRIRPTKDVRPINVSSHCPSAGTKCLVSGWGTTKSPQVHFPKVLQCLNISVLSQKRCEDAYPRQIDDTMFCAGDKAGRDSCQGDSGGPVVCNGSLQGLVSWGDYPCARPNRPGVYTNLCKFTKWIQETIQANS

Albumin [5] = target: Albumin (Homo sapiens, UniProt P02768); test: Binding affinity to human serum albumin by fluorescence polarization assay
Albumin [6] = target: Albumin (Mus musculus, UniProt P07724); test: Binding affinity to mouse serum albumin by fluorescence polarization assay
Kallikrein-7 = Kallikrein-7 (Mus musculus, UniProt Q91VE3); test: Inhibition of mouse KLK7 assessed as inhibition constant; set-up: species or system CHO
[7] = Half life in C57BL/6J mouse at 6.2 mg/kg, ip by RP-HPLC analysis; format: ADME, organism-based; conditions: in vivo
[8] = Drug uptake in C57BL/6J mouse skin at 12.4 mg/kg, ip measured after 48 hrs by fluorescence imaging analysis; format: ADME, organism-based, Skin of body; conditions: in vivo
[9] = Half life in C57BL/6J mouse at 6.2 mg/kg, sc by RP-HPLC analysis; format: ADME, organism-based; conditions: in vivo
[10] = Drug degradation in C57BL/6J mouse at 6.2 mg/kg, ip measured after 18 to 28 mins by RP-HPLC analysis; format: ADME, organism-based; conditions: in vivo, time 18-28 min
[11] = Drug degradation in C57BL/6J mouse at 6.2 mg/kg, sc measured after 18 to 28 mins by RP-HPLC analysis; format: ADME, organism-based; conditions: in vivo, time 18-28 min
[12] = Drug uptake in C57BL/6J mouse skin epidermis at 6.2 mg/kg, iv measured after 8 hrs by fluorescence imaging analysis; format: ADME, organism-based; conditions: in vivo
[13] = Drug uptake in C57BL/6J mouse skin epidermis assessed as half life at 3.2 mg/kg, iv by fluorescence imaging analysis; format: ADME, organism-based; conditions: time 8 hrs
[14] = Drug uptake in C57BL/6J mouse skin epidermis assessed as half life at 6.4 mg/kg, ip measured after 8 hrs by DAPI staining based fluorescence microscope assay; format: ADME, organism-based; conditions: in vivo

Albumin (Homo sapiens, UniProt P02768), sequence (P02768 whole entry): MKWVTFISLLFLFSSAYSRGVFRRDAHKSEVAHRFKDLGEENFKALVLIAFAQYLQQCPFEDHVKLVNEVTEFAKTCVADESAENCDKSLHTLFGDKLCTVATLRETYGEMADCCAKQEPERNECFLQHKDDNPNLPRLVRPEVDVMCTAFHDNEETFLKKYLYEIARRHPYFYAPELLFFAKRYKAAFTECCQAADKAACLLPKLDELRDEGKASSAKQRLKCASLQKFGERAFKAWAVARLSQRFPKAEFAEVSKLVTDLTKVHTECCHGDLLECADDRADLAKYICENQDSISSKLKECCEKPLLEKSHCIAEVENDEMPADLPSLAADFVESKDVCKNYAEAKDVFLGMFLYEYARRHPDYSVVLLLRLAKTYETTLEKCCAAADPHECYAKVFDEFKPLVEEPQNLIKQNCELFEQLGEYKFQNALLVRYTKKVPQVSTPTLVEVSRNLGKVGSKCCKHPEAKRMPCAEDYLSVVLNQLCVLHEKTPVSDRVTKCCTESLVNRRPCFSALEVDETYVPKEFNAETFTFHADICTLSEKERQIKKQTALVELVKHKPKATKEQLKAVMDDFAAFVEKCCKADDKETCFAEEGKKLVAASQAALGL
Kallikrein-7, sequence (Q91VE3 whole entry): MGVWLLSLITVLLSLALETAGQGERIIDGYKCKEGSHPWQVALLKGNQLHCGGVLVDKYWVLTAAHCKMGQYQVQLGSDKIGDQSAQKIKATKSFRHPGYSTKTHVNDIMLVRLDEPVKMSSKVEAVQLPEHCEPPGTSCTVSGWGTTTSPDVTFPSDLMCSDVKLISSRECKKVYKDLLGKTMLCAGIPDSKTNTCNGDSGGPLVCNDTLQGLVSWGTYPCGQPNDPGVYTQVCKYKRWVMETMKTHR
Albumin (Mus musculus, UniProt P07724), sequence (P07724 whole entry): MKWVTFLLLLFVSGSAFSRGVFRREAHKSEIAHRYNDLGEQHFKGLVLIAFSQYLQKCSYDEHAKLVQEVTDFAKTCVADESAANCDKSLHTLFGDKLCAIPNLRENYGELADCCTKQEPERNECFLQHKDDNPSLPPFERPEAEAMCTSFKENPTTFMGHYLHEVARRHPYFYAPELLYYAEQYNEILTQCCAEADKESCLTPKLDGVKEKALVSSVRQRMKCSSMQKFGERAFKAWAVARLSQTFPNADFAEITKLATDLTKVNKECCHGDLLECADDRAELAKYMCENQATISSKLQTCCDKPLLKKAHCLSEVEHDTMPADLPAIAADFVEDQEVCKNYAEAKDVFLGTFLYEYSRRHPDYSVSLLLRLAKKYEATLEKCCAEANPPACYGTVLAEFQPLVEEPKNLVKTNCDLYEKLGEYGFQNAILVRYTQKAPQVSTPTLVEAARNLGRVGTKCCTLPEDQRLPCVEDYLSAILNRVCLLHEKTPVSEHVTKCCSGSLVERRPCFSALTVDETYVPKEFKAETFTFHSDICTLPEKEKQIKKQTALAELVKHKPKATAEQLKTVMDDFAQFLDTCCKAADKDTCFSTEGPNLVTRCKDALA

half-life [1]: > 96 h
concentration at 24 h [2]: 20 µM
Stability [3]: Unstable
half-life [4]: 6.2 h
SMILES: CCCCCCCCCCCCCCCC(=O)NCCCC[C@H](NC(=O)[C@H](CCC(=O)O)NC(=O)[C@@H](Cc1ccc(O)cc1)NC(=O)[C@H](CCC(=O)O)NC(=O)COCCOCCNC(=O)c1ccc(-c2c3ccc(=O)cc-3oc3cc(O)ccc23)c(C(=O)O)c1)C(=O)N[C@@H](CCC(=O)O)C(=O)N[C@@H](Cc1ccc(O)cc1)C(=O)N[C@@H](CCC(=O)O)C(=O)NCCOCCOCC(=O)NCCCC[C@H](NC(=O)CNC(=O)[C@@H]1CSCC(=O)CSC[C@H](NC(=O)[C@@H]2CCCN2)C(=O)N[C@@H](CC(C)C)C(=O)N[C@@H](Cc2ccc(O)cc2)C(=O)N[C@@H](CCCC)C(=O)N[C@@H](C)C(=O)N[C@@H](CCCCNC(=N)N)C(=O)N1)C(=O)NCC(N)=O

pKi (Kallikrein-5): 8.92
half-life [1]: 90 h
pKd (Albumin [5]): 6.92
pKd (Albumin [6]): 5.15
pKi (Kallikrein-7): 8.39
concentration at 24 h [2]: 20 µM
half-life [7]: 5.1 h
Drug uptake [8]: Active
half-life [9]: 5.8 h
Stability [10]: Unstable
Stability [3]: Unstable
Stability [11]: Unstable
Drug uptake [12]: Active
half-life [4]: 4.4 h
SMILES: CCCCCCCCCCCCCCCC(=O)NCCCC[C@H](NC(=O)[C@H](CCC(=O)O)NC(=O)[C@H](Cc1ccc(O)cc1)NC(=O)[C@H](CCC(=O)O)NC(=O)COCCOCCNC(=O)c1ccc(-c2c3ccc(=O)cc-3oc3cc(O)ccc23)c(C(=O)O)c1)C(=O)N[C@@H](CCC(=O)O)C(=O)N[C@@H](Cc1ccc(O)cc1)C(=O)N[C@@H](CCC(=O)O)C(=O)NCCOCCOCC(=O)NCCCC[C@H](NC(=O)CNC(=O)[C@@H]1CSCC(=O)CSC[C@H](NC(=O)CN)C(=O)N[C@@H]([C@@H](C)O)C(=O)N[C@@H](CCCNC(=N)N)C(=O)N[C@@H](CCC(N)=O)C(=O)N[C@@H](Cc2ccc(O)cc2)C(=O)N2CCC[C@H]2C(=O)N1)C(=O)NCC(N)=O

half-life [13]: 0.64 h
SMILES: CCCCCCCCCCCCCCCC(=O)NCCCC[C@H](NC(=O)[C@@H](CCO)CC(=O)[C@H](Cc1ccc(O)cc1)NC(=O)[C@H](CCO)NC(=O)COCCOCCNC(=O)c1ccc(-c2c3ccc(=O)cc-3oc3cc(O)ccc23)c(C(=O)O)c1)C(=O)N[C@@H](CCO)C(=O)N[C@@H](Cc1ccc(O)cc1)C(=O)N[C@@H](CCC(=O)O)C(=O)NCCOCCOCC(=O)NCCCC[C@H](NC(=O)CNC(=O)[C@@H]1CSCC(=O)CSC[C@H](NC(=O)CNC(C)=O)C(=O)N[C@@H]([C@@H](C)O)C(=O)N[C@@H](CCCNC(=N)N)C(=O)N[C@@H](CCC(N)=O)C(=O)N[C@@H](Cc2ccc(O)cc2)C(=O)N2CCC[C@H]2C(=O)N1)C(=O)NCC(N)=O (I: Ac-GCTRQYPCGKG-NH2 / II: {X1-AEEA}-[hSer][X3]K(Palmitoyl)[hSer]YE[AEEA]; linker I:2-I:8 via CH2COCH2; amide I:10-II:C)

Drug uptake [14]: Active
SMILES: CCCCCCCCCCCCCCCC(=O)NCCCC[C@H](NC(=O)[C@@H](CCO)CC(=O)[C@H](Cc1ccc(O)cc1)NC(=O)[C@H](CCO)NC(=O)COCCOCCNC(=O)c1ccc(C(=O)O)c(C2=C3C=CC(=[N+](C)C)C=C3[Si](C)(C)c3cc(N(C)C)ccc32)c1)C(=O)N[C@@H](CCO)C(=O)N[C@@H](Cc1ccc(O)cc1)C(=O)N[C@@H](CCC(=O)O)C(=O)NCCOCCOCC(=O)NCCCC[C@H](NC(=O)CNC(=O)[C@@H]1CSCC(=O)CSC[C@H](NC(=O)CNC(C)=O)C(=O)N[C@@H]([C@@H](C)O)C(=O)N[C@@H](CCCNC(=N)N)C(=O)N[C@@H](CCC(N)=O)C(=O)N[C@@H](Cc2ccc(O)cc2)C(=O)N2CCC[C@H]2C(=O)N1)C(=O)NCC(N)=O (I: Ac-GCTRQYPCGKG-NH2 / II: {X2-AEEA}-[hSer][X3]K(Palmitoyl)[hSer]YE[AEEA]; linker I:2-I:8 via CH2COCH2; amide I:10-II:C)
